{"source": "patent US20220305012A1", "about": "“L[…] TREATING SLEEP ISSUES” (EISAI R&D MANAGEMENT CO., LTD., priority 2019, published 2022)", "type_in_all_cases": "in vivo, human", "key": {"[1]": {"system": "Subjects Having Insomnia Disorder", "assay": "Example 1: Insomnia Severity Index Daytime Functioning (Items 4-7)", "excerpt": "As used herein, the term “Insomnia Severity Index”, abbreviated as “ISI”, is an index calculated using a 7-item, self-report questionnaire assessing the nature, severity, and impact of insomnia (see Bastien, C. H., et al. “Validation of the Insomnia Severity Index as an outcome measure for insomnia research.” Sleep Med. 2001; 2(4): 297-307). The questionnaire evaluates: (1) severity of sleep onset; (2) sleep maintenance; (3) early morning awakening problems; (4) sleep dissatisfaction; (5) interference caused by sleep difficulties with daytime functioning; (6) noticeability of sleep problems by others; and (7) distress caused by the sleep difficulties. A 5-point scale is used to rate each item (0=no problem to 4=very severe problem) yielding a total score from 0 to 28. Total ISI score (items (1)-(7)) and daytime functioning (items (4)-(7)) are analyzed separately.\n(§1) Month 1 Assessment: Standard safety assessments were performed on the subject. A blood sample was collected for determination of plasma concentration of lemborexant and its metabolites, and the ISI, FSS, PGI-Insomnia, EQ-5D-3L, and eC-SSR were completed.\n(§2) Month 3 Assessment: All assessments conducted at the Month 1 Assessment were repeated.\n(§3) Month 6 Assessment: All assessments conducted at the Month 1 Assessment were repeated, and subjects completed the WPAI-GH.\nIn addition to the aforementioned study endpoints, the study included several additional secondary endpoints: • Mean change from study baseline of subjective sleep onset latency, subjective sleep efficiency, subjective wake after sleep onset, and subjective total sleep time at the beginning of treatment (mean of the 7 nights after the first dose in Period 1), at Month 1 and at Month 3. • Mean change from study baseline of subjective total sleep time at Month 6. • Change from study baseline in daytime functioning, assessed as the total score from the 4 items on daytime functioning, on the Insomnia Severity Index, at Months 1, 3, and 6."}, "[2]": {"system": "Subjects Having Insomnia Disorder", "assay": "Example 3: proportion of sWASO responders (pooled Examples 1 and 2)", "method": "The data collected in studies described in Example 1 and Example 2 were pooled and the response of each subject was analyzed."}, "[3]": {"system": "Subjects Having Insomnia Disorder", "assay": "Example 2: REM latency", "settings": "both doses (FIG. 16)"}, "[4]": {"assay": "Example 1: plasma concentrations of lemborexant and metabolites", "settings": "for concentration at 1 month / concentration at 3 month / concentration at 6 month: human, plasma", "method": "as §1, §2, §3"}, "[5]": {"settings": "First 7 Days, Lemborexant 10 mg"}}, "note": "Read-outs that look alike come from different tables or passages of the source."}
{"molecule": "Cc1ncc(OC[C@@]2(c3cccc(F)c3)C[C@H]2C(=O)Nc2ccc(F)cn2)c(C)n1", "note": "[Lemborexant, (1R,2S)-2-(((2,4-dimethylpyrimidin-5-yl)oxy)methyl)-2-(3-fluorophenyl)-N-(5-fluoropyridin-2-yl)cyclopropanecarboxamide]", "values": [{"measurement": "ISI Daytime Functioning (Items 4-7), Mean", "setting": "[1]; 5 mg, Month 1", "result": 7.2}, {"measurement": "ISI Daytime Functioning (Items 4-7), Median", "setting": "[1]; 5 mg, Month 1", "result": 7.0}, {"measurement": "ISI Daytime Functioning (Items 4-7), Mean", "setting": "[1]; 5 mg, Month 3", "result": 6.2}, {"measurement": "ISI Daytime Functioning (Items 4-7), Median", "setting": "[1]; 5 mg, Month 3", "result": 6.0}, {"measurement": "ISI Daytime Functioning (Items 4-7), Mean", "setting": "[1]; 5 mg, Month 6", "result": 5.4}, {"measurement": "ISI Daytime Functioning (Items 4-7), Median", "setting": "[1]; 5 mg, Month 6", "result": 5.0}, {"measurement": "ISI Daytime Functioning Change from Study Baseline, Mean", "setting": "[1]; 5 mg, Month 6", "result": "−6.0"}, {"measurement": "ISI Daytime Functioning Change from Study Baseline, Median", "setting": "[1]; 5 mg, Month 6", "result": "−6.0"}, {"measurement": "ISI Daytime Functioning LSM treatment difference: Lemborexant/Placebo", "setting": "[1]; 5 mg, Month 6", "result": "−1.30"}, {"measurement": "ISI Daytime Functioning (Items 4-7), Mean", "setting": "[1]; 5 mg, Study Baseline", "result": 11.4}, {"measurement": "ISI Daytime Functioning (Items 4-7), Median", "setting": "[1]; 5 mg, Study Baseline", "result": 11.0}, {"measurement": "ISI Daytime Functioning Change from Study Baseline, Mean", "setting": "[1]; 5 mg, after 1 Month", "result": "−4.1"}, {"measurement": "ISI Daytime Functioning Change from Study Baseline, Median", "setting": "[1]; 5 mg, after 1 Month", "result": "−3.0"}, {"measurement": "ISI Daytime Functioning Change from Study Baseline, Mean", "setting": "[1]; 5 mg, after 3 Months", "result": "−5.2"}, {"measurement": "ISI Daytime Functioning Change from Study Baseline, Median", "setting": "[1]; 5 mg, after 3 Months", "result": "−5.0"}, {"measurement": "ISI Daytime Functioning LSM treatment difference: Lemborexant/Placebo", "setting": "[1]; 5 mg, change from Study Baseline after 1 Month", "result": "−0.71"}, {"measurement": "ISI Daytime Functioning LSM treatment difference: Lemborexant/Placebo", "setting": "[1]; 5 mg, change from Study Baseline after 3 Months", "result": "−1.16"}, {"measurement": "ISI Daytime Functioning (Items 4-7), Mean", "setting": "[1]; 10 mg, Month 1", "result": 7.0}, {"measurement": "ISI Daytime Functioning (Items 4-7), Median", "setting": "[1]; 10 mg, Month 1", "result": 7.0}, {"measurement": "ISI Daytime Functioning (Items 4-7), Mean", "setting": "[1]; 10 mg, Month 3", "result": 6.0}, {"measurement": "ISI Daytime Functioning (Items 4-7), Median", "setting": "[1]; 10 mg, Month 3", "result": 5.0}, {"measurement": "ISI Daytime Functioning (Items 4-7), Mean", "setting": "[1]; 10 mg, Month 6", "result": 5.4}, {"measurement": "ISI Daytime Functioning (Items 4-7), Median", "setting": "[1]; 10 mg, Month 6", "result": 5.0}, {"measurement": "ISI Daytime Functioning Change from Study Baseline, Mean", "setting": "[1]; 10 mg, Month 6", "result": "−5.7"}, {"measurement": "ISI Daytime Functioning Change from Study Baseline, Median", "setting": "[1]; 10 mg, Month 6", "result": "−6.0"}, {"measurement": "ISI Daytime Functioning LSM treatment difference: Lemborexant/Placebo", "setting": "[1]; 10 mg, Month 6", "result": "−1.32"}, {"measurement": "ISI Daytime Functioning (Items 4-7), Mean", "setting": "[1]; 10 mg, Study Baseline", "result": 11.0}, {"measurement": "ISI Daytime Functioning (Items 4-7), Median", "setting": "[1]; 10 mg, Study Baseline", "result": 11.0}, {"measurement": "ISI Daytime Functioning Change from Study Baseline, Mean", "setting": "[1]; 10 mg, after 1 Month", "result": "−4.2"}, {"measurement": "ISI Daytime Functioning Change from Study Baseline, Median", "setting": "[1]; 10 mg, after 1 Month", "result": "−4.0"}, {"measurement": "ISI Daytime Functioning Change from Study Baseline, Mean", "setting": "[1]; 10 mg, after 3 Months", "result": "−5.2"}, {"measurement": "ISI Daytime Functioning Change from Study Baseline, Median", "setting": "[1]; 10 mg, after 3 Months", "result": "−5.0"}, {"measurement": "ISI Daytime Functioning LSM treatment difference: Lemborexant/Placebo", "setting": "[1]; 10 mg, change from Study Baseline after 1 Month", "result": "−0.94"}, {"measurement": "ISI Daytime Functioning LSM treatment difference: Lemborexant/Placebo", "setting": "[1]; 10 mg, change from Study Baseline after 3 Months", "result": "−1.36"}, {"measurement": "Subjective Wake After Sleep Onset Responder, No, n (%)", "setting": "[2]; First 7 Days, Lemborexant 5 mg", "result": "420 (81.1) n (%)"}, {"measurement": "Subjective Wake After Sleep Onset Responder, Yes, n (%)", "setting": "[2]; First 7 Days, Lemborexant 5 mg", "result": "91 (17.6) n (%)"}, {"measurement": "Subjective Wake After Sleep Onset Responders, Difference of proportion vs. Placebo", "setting": "[2]; First 7 Days, Lemborexant 5 mg", "result": 6.15}, {"measurement": "Subjective Wake After Sleep Onset Responder, No, n (%)", "setting": "[2]; [5]", "result": "411 (79.5) n (%)"}, {"measurement": "Subjective Wake After Sleep Onset Responder, Yes, n (%)", "setting": "[2]; [5]", "result": "100 (19.3) n (%)"}, {"measurement": "Subjective Wake After Sleep Onset Responders, Difference of proportion vs. Placebo", "setting": "[2]; [5]", "result": 7.84}, {"measurement": "Subjective Wake After Sleep Onset Responder, No, n (%)", "setting": "[2]; Month 1, Lemborexant 5 mg", "result": "372 (71.8) n (%)"}, {"measurement": "Subjective Wake After Sleep Onset Responder, Yes, n (%)", "setting": "[2]; Month 1, Lemborexant 5 mg", "result": "121 (23.4) n (%)"}, {"measurement": "Subjective Wake After Sleep Onset Responders, Difference of proportion vs. Placebo", "setting": "[2]; Month 1, Lemborexant 5 mg", "result": 5.61}, {"measurement": "Subjective Wake After Sleep Onset Responder, No, n (%)", "setting": "[2]; Month 1, Lemborexant 10 mg", "result": "368 (71.2) n (%)"}, {"measurement": "Subjective Wake After Sleep Onset Responder, Yes, n (%)", "setting": "[2]; Month 1, Lemborexant 10 mg", "result": "122 (23.6) n (%)"}, {"measurement": "Subjective Wake After Sleep Onset Responders, Difference of proportion vs. Placebo", "setting": "[2]; Month 1, Lemborexant 10 mg", "result": 5.96}, {"measurement": "proportion of sWASO responders compared with placebo", "setting": "[2]; both doses, first 7 days and end of month 1, responder: sWASO of 60 or less minutes and reduction of at least 10 minutes, baseline >60 minutes (Table 31)", "result": "statistically significantly superior"}, {"measurement": "REM latency", "setting": "[3]", "result": "greater mean decrease in REM latency compared to treatment with placebo and zolpidem ER"}, {"measurement": "concentration at 1 month", "setting": "[4]; 10 mg, lemborexant 10 mg dose, Month 1, read-out: Plasma concentration, Mean (SD)", "result": 16.3, "unit": "ng/mL"}, {"measurement": "concentration at 1 month", "setting": "[4]; 10 mg, lemborexant 10 mg dose, Month 1, read-out: Plasma concentration, Median", "result": 15.1, "unit": "ng/mL"}, {"measurement": "concentration at 3 month", "setting": "[4]; 10 mg, lemborexant 10 mg dose, Month 3, read-out: Plasma concentration, Mean (SD)", "result": 15.6, "unit": "ng/mL"}, {"measurement": "concentration at 3 month", "setting": "[4]; 10 mg, lemborexant 10 mg dose, Month 3, read-out: Plasma concentration, Median", "result": 15.1, "unit": "ng/mL"}, {"measurement": "concentration at 6 month", "setting": "[4]; 10 mg, lemborexant 10 mg dose, Month 6, read-out: Plasma concentration, Mean (SD)", "result": 15.2, "unit": "ng/mL"}, {"measurement": "concentration at 6 month", "setting": "[4]; 10 mg, lemborexant 10 mg dose, Month 6, read-out: Plasma concentration, Median", "result": 14.5, "unit": "ng/mL"}, {"measurement": "concentration at 1 month", "setting": "[4]; oral, 5 mg, lemborexant 5 mg dose, Month 1, read-out: Plasma concentration, Mean (SD)", "result": 9, "unit": "ng/mL"}, {"measurement": "concentration at 1 month", "setting": "[4]; oral, 5 mg, lemborexant 5 mg dose, Month 1, read-out: Plasma concentration, Median", "result": 7.6, "unit": "ng/mL"}, {"measurement": "concentration at 3 month", "setting": "[4]; oral, 5 mg, lemborexant 5 mg dose, Month 3, read-out: Plasma concentration, Mean (SD)", "result": 8.4, "unit": "ng/mL"}, {"measurement": "concentration at 3 month", "setting": "[4]; oral, 5 mg, lemborexant 5 mg dose, Month 3, read-out: Plasma concentration, Median", "result": 7.7, "unit": "ng/mL"}, {"measurement": "concentration at 6 month", "setting": "[4]; oral, 5 mg, lemborexant 5 mg dose, Month 6, read-out: Plasma concentration, Mean (SD)", "result": 7.9, "unit": "ng/mL"}, {"measurement": "concentration at 6 month", "setting": "[4]; oral, 5 mg, lemborexant 5 mg dose, Month 6, read-out: Plasma concentration, Median", "result": 6.9, "unit": "ng/mL"}, {"measurement": "Plasma concentration BLQ (<0.0500 ng/mL)", "setting": "[4]; lemborexant 5 mg dose, Month 1", "result": "31 (10.5) n (%)"}, {"measurement": "Plasma concentration BLQ (<0.0500 ng/mL)", "setting": "[4]; lemborexant 5 mg dose, Month 3", "result": "34 (12.6) n (%)"}, {"measurement": "Plasma concentration BLQ (<0.0500 ng/mL)", "setting": "[4]; lemborexant 5 mg dose, Month 6", "result": "45 (18.2) n (%)"}, {"measurement": "Plasma concentration BLQ (<0.0500 ng/mL)", "setting": "[4]; lemborexant 10 mg dose, Month 1", "result": "21 (7.4) n (%)"}, {"measurement": "Plasma concentration BLQ (<0.0500 ng/mL)", "setting": "[4]; lemborexant 10 mg dose, Month 3", "result": "29 (11.2) n (%)"}, {"measurement": "Plasma concentration BLQ (<0.0500 ng/mL)", "setting": "[4]; lemborexant 10 mg dose, Month 6", "result": "33 (14.6) n (%)"}]}
